Laboratory results from publication PMC9879287 (Current research in chemical biology, 2022).

Key:
MOLM14 cells = assay: Alarma Blue cell viability assay, MOLM14; assay type: cell-based; settings: Homo sapiens, MOLM-14, 72 h, read-out: MOLM14 IC50
His-BTK = His-BTK (Homo sapiens, UniProt Q06187); assay: TR-FRET competition binding assay with BTK-BODIPY tracer; settings: 2 h incubation, 150 nM tracer, 2 nM His-BTK
IKZF3-nLuc [1] = molecular target: T1, IKZF3-nLuc (Homo sapiens, UniProt Q96SW2+Q9UKT9); assay type: cell-based
T1 sequence (Q9UKT9 whole entry): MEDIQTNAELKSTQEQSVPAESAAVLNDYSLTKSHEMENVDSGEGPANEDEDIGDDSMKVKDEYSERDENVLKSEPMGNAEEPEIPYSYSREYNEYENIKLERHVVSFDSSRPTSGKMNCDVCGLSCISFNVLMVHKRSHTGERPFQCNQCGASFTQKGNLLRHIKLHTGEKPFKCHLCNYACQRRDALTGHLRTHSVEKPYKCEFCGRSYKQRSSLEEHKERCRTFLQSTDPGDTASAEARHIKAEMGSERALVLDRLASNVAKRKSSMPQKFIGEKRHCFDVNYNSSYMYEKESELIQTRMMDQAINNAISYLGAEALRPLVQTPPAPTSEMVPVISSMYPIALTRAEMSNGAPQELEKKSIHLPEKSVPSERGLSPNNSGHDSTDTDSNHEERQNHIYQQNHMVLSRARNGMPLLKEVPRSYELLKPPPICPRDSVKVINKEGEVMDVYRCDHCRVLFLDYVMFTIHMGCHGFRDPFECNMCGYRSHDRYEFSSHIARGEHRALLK
T1 sequence (Q96SW2 whole entry): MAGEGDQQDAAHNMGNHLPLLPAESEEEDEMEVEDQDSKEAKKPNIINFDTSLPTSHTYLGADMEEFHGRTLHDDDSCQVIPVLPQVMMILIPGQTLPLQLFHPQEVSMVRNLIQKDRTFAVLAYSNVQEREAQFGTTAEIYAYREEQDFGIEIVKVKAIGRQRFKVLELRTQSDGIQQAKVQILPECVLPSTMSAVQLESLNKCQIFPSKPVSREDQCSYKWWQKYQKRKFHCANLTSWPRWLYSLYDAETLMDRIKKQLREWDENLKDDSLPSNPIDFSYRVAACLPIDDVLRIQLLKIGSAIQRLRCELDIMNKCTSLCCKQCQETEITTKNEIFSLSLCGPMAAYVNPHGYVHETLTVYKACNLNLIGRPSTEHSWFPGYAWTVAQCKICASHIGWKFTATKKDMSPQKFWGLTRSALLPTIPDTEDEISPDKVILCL
T1 sequence (Q16531 whole entry partner): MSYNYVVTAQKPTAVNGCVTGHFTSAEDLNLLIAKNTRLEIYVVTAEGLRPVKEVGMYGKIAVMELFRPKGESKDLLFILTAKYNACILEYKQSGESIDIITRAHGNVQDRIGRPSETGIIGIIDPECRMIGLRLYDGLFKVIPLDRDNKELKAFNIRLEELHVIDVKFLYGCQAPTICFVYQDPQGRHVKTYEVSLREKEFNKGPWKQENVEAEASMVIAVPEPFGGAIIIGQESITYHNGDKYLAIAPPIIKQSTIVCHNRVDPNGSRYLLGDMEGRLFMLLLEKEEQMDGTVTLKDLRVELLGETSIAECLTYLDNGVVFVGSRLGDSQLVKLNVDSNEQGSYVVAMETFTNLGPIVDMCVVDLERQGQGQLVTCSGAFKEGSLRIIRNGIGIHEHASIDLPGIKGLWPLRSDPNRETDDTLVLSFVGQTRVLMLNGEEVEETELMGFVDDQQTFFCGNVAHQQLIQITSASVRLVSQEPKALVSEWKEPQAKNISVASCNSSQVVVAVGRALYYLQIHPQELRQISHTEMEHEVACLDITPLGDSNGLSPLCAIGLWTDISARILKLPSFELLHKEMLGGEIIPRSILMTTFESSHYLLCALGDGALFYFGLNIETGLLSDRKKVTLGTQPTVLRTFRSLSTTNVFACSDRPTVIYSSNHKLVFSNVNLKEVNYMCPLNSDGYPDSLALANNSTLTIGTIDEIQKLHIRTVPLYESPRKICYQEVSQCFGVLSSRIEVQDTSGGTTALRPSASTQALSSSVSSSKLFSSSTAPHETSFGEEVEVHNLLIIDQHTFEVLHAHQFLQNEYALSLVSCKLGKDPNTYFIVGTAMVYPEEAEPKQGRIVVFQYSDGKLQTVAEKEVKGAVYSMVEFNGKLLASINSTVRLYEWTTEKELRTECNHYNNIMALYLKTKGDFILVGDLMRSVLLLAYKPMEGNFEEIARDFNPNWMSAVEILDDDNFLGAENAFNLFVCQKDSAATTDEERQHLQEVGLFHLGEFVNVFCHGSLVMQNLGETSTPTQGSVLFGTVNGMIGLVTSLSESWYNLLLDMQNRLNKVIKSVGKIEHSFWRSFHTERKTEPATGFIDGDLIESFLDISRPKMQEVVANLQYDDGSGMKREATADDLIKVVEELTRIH

IKZF3 = IKZF3 (Homo sapiens, UniProt Q96SW2+Q9UKT9); assay: Western blotting for IKZF3 in Mino cells; assay type: cell-based; settings: at 40 nM; assay not given
Sequence of IKZF3 (Q9UKT9 whole entry): as the sequence (Q9UKT9 whole entry) above
Sequence of IKZF3 (Q96SW2 whole entry): as the sequence (Q96SW2 whole entry) above
Sequence of IKZF3 (Q16531 whole entry partner): as the sequence (Q16531 whole entry partner) above

IKZF1 = IKZF1 (Homo sapiens, UniProt Q13422+Q96SW2); assay: Western blotting for IKZF1 in Mino cells; assay type: cell-based; settings: at 200 nM; assay not given
Sequence of IKZF1 (Q13422 whole entry): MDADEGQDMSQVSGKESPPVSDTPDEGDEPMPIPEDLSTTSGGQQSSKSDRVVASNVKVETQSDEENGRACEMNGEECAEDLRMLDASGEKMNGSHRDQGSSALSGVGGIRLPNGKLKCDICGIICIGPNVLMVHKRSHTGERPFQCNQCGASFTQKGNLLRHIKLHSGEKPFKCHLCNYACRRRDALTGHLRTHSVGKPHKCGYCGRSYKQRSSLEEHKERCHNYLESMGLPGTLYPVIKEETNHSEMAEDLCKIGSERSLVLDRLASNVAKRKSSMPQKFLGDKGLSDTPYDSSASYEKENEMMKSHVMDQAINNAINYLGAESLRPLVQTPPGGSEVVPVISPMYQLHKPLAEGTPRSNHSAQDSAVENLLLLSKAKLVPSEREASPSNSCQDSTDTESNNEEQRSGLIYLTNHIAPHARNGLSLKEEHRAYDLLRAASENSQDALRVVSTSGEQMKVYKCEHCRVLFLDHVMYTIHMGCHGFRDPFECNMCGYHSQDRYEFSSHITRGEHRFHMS
Sequence of IKZF1 (Q96SW2 whole entry): as the sequence (Q96SW2 whole entry) above
Sequence of IKZF1 (Q16531 whole entry partner): as the sequence (Q16531 whole entry partner) above

IKZF3-nLuc [2] = molecular target: T1, IKZF3-nLuc; settings: other cell line
IKZF1-nLuc = IKZF1-nLuc (Homo sapiens, UniProt Q13422+Q96SW2); settings: other cell line
Sequence of IKZF1-nLuc (Q13422 whole entry): as the sequence (Q13422 whole entry) above
Sequence of IKZF1-nLuc (Q96SW2 whole entry): as the sequence (Q96SW2 whole entry) above
Sequence of IKZF1-nLuc (Q16531 whole entry partner): as the sequence (Q16531 whole entry partner) above

Mino cells = assay: cells; assay type: cell-based; settings: Homo sapiens, read-out: Mino IC50
Jeko-1 cells = assay: Alarma Blue cell viability assay, Jeko-1; assay type: cell-based
Rec-R cells = assay: Alarma Blue cell viability assay, Rec-R; assay type: cell-based
BTK = BTK (Homo sapiens, UniProt Q06187); assay: Western blotting for BTK in Mino cells; assay type: cell-based; settings: 24 h; for BTK degradation in Mino cells: Western blotting
Sequence of BTK (Q06187 whole entry, the tested form may be a part): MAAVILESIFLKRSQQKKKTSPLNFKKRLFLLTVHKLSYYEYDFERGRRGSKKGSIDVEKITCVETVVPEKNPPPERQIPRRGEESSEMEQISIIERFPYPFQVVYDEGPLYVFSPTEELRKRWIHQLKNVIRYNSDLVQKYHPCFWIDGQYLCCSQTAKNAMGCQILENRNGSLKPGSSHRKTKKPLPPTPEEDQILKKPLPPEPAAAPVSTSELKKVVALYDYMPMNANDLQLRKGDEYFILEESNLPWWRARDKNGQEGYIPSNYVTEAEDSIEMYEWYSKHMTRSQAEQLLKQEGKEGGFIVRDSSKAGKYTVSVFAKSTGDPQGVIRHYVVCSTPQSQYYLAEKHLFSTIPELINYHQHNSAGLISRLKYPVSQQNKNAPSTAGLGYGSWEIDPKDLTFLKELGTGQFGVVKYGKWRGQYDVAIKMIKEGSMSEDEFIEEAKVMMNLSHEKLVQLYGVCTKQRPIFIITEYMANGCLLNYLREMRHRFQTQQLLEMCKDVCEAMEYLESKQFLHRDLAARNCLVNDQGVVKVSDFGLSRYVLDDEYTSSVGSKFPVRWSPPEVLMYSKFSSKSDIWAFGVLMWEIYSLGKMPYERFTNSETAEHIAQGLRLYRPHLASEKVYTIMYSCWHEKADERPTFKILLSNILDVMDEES

BTK-nLuc fusion protein = BTK-nLuc fusion protein (Homo sapiens, UniProt Q06187+Q96SW2); assay: BTK-nLuc endpoint degradation assay; assay type: cell-based; settings: HEK-293T cells stably expressing BTK-nLuc, 24 h
Sequence of BTK-nLuc fusion protein (Q06187 whole entry, the tested form may be a part): as above
Sequence of BTK-nLuc fusion protein (Q96SW2 whole entry, the tested form may be a part): as the sequence (Q96SW2 whole entry) above
Sequence of BTK-nLuc fusion protein (Q16531 whole entry partner, the tested form may be a part): as the sequence (Q16531 whole entry partner) above

Sequence of His-BTK (Q06187 whole entry): as the sequence (Q06187 whole entry, the tested form may be a part) above

C=CC(=O)Nc1cccc(Oc2nc(Nc3ccc(N4CCN(C)CC4)cc3)nc3ccoc23)c1 [Poseltinib, poseltinib]
IC50 (MOLM14 cells): 2900 nM | IC50 (His-BTK): 1.21 nM

CN1CCN(C(=O)CNc2cccc3c2C(=O)N(C2CCC(=O)NC2=O)C3=O)CC1 (centres unmarked) [PS-5]
IKZF3 degradation in the nLuc assay (IKZF3-nLuc [1]): appear to be potent IKZF3 degraders | IKZF3 degradation (IKZF3): do not degrade IKZF3 | IKZF1 degradation (IKZF1): less potent

Nc1ccc(N2CCN(C(=O)CNc3cccc4c3C(=O)N(C3CCC(=O)NC3=O)C4=O)CC2)cc1 (centres unmarked) [PS-4]
IKZF3 degradation (IKZF3): do not degrade IKZF3 | IKZF1 degradation (IKZF1): substantial IKZF1 degradation

Nc1cccc2c1C(=O)N(C1CCC(=O)NC1=O)C2=O (centres unmarked) [Pomalidomide, pomalidomide]
IKZF3 degradation half-life (IKZF3-nLuc [2]): 1.9 h | IKZF1 degradation half-life (IKZF1-nLuc): 4.9 h | IC50 (Mino cells): 329 nM | response of Jeko-1 cells (Jeko-1 cells): only Mino cells are responsive | response of Rec-R cells (Rec-R cells): only Mino cells are responsive

Cc1c(NC(=O)c2ccc(C(C)(C)C)cc2)cccc1-c1cn(C)c(=O)c(Nc2ccc(C(=O)N3CCN(CCCCCCNC(=O)CNc4cccc5c4C(=O)N(C4CCC(=O)NC4=O)C5=O)CC3)cc2)n1 (centres unmarked) [DD-03-171]
BTK WB Dmax (BTK; Mino cells): 99% | BTK degradation in Mino cells (BTK): potently induces BTK degradation | BTK-nLuc Dmax (BTK-nLuc fusion protein): 96% | DC50 (BTK-nLuc fusion protein; read-out: BTK-nLuc DC50): 25.9 nM

O=C1CC[C@H](N2Cc3c(OCc4ccc(CN5CCOCC5)cc4)cccc3C2=O)C(=O)N1 [CC220]
BTK degradation in Mino cells (BTK): In contrast to PS-1, PS-3 and CC-220, PS-2 potently induces BTK degradation
